The source of these data is BindingDB's records for patent WO2022076764 (BRISTOL-MYERS SQUIBB COMPANY, 2022).

The term EC50 denotes the midpoint of the concentration-response curve. Low values mean greater potency, high ones weaker potency.

One assay deals with T1, fMet-Leu-Phe receptor (Homo sapiens, UniProt P21462).
T1 sequence (P21462 whole entry): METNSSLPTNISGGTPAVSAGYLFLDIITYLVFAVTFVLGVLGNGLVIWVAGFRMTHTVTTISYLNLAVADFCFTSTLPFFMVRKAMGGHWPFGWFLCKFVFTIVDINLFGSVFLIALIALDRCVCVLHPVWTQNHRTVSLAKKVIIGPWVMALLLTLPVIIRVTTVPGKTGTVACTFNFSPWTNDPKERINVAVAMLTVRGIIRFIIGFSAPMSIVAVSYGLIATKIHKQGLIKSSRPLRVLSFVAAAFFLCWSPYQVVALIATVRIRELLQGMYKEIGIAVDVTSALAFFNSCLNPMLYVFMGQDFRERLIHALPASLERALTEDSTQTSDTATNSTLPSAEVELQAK

The target in assay [1] is T2, N-formyl peptide receptor 2 (Homo sapiens, UniProt P25090).
T2 sequence (P25090 whole entry): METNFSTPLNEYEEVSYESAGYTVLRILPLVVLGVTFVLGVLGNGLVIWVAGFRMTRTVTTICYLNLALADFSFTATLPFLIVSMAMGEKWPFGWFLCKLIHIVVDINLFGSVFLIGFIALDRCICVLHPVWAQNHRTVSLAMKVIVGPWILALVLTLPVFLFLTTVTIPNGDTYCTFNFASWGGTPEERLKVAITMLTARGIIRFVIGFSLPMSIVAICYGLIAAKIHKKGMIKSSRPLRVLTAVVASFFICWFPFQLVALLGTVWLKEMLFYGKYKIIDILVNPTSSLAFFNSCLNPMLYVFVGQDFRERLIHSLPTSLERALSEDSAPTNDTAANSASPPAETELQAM

Consider `COc1cc(F)c(-n2cc(-c3cccc(C#N)c3)nc2NC(=O)c2ccc(OC(F)F)cc2)c(F)c1` [WO2022076764, Example 17], for which the EC50 at fMet-Leu-Phe receptor is 5 nM; in assay [1], 46 nM.

Regarding `COc1cc(F)c(-n2cc(C(=O)Nc3cn[nH]c3)nc2NC(=O)c2ccc(OC(F)F)cc2)c(F)c1` [WO2022076764, Example 62], the EC50 on fMet-Leu-Phe receptor was 32 nM; in assay [1], 830 nM.

As to `COc1ccc(-n2cc(-c3ccccn3)nc2NC(=O)c2ccc(OC(F)F)cc2)cc1` [WO2022076764, Example 28], the EC50 at fMet-Leu-Phe receptor is 700 nM; in assay [1] it was 1030 nM.

Consider `COc1cc(F)c(-n2cc(C3CCNCC3)nc2NC(=O)c2ccc(OC(F)F)cc2)c(F)c1` [WO2022076764, Example 63], for which the EC50 on fMet-Leu-Phe receptor was 10 nM; in assay [1] it was 710 nM.

As for `COc1cc(F)c(-n2cc(C(=O)N3CCCC(O)C3)nc2NC(=O)c2ccc(OC(F)F)cc2)c(F)c1` (stereo unspecified) [WO2022076764, Example 51], the results for the EC50 (on fMet-Leu-Phe receptor; in assay [1]) were 83 nM and 2900 nM, respectively.

For the compound `COc1cc(F)c(-n2cc(-c3ccc(C(F)(F)F)cc3)nc2NC(=O)c2ccc(OC(F)F)cc2)c(F)c1` [WO2022076764, Example 6], the EC50 was found to be 76 nM on fMet-Leu-Phe receptor and 120 nM in assay [1].

As for `COc1cc(F)c(-n2cc(Cc3ccccc3)nc2NC(=O)c2ccc(OC(F)F)cc2)c(F)c1` [WO2022076764, Example 71], the EC50 was 46 nM on fMet-Leu-Phe receptor and 1300 nM in assay [1].

In the case of `COc1ccc(-c2cn(-c3c(F)cc(OC)cc3F)c(NC(=O)c3ccc(OC(F)F)cc3)n2)cc1` [WO2022076764, Example 14], the EC50 at fMet-Leu-Phe receptor amounted to 39 nM; in assay [1], 160 nM.

Consider `COc1ccc(-n2cc(C(=O)NCCCO)nc2NC(=O)c2ccc(OC(F)F)cc2)cc1` [WO2022076764, Example 46], for which the EC50 at fMet-Leu-Phe receptor turned out to be 27 nM; in assay [1], 210 nM.

For the compound `COc1ccc(-n2cc(C3CCCNC3)nc2NC(=O)c2ccc(OC(F)F)cc2)cc1` (stereo unspecified) [WO2022076764, Example 64], the EC50 is 11 nM on fMet-Leu-Phe receptor and 210 nM in assay [1].

`COc1cc(F)c(-n2cc(C(=O)N3CCN(C)CC3)nc2NC(=O)c2ccc(OC(F)F)cc2)c(F)c1` [WO2022076764, Example 55]: the EC50 on fMet-Leu-Phe receptor is 280 nM; in assay [1], greater than 10000 nM.

With `COc1cc(F)c(-n2cc(-c3ccnc(Cl)c3)nc2NC(=O)c2ccc(OC(F)F)cc2)c(F)c1` [WO2022076764, Example 34], the EC50 on fMet-Leu-Phe receptor was 16 nM; in assay [1], 120 nM.

As for `COc1cc(F)c(-n2cc(C(=O)NCc3ccncc3)nc2NC(=O)c2ccc(OC(F)F)cc2)c(F)c1` [WO2022076764, Example 48], the EC50 on fMet-Leu-Phe receptor was determined as 110 nM; in assay [1], 600 nM.

In the case of `COc1cc(F)c(-n2cc(CC(C)C)nc2NC(=O)c2ccc(OC(F)F)cc2)c(F)c1` [WO2022076764, Example 35], the EC50 is 99 nM on fMet-Leu-Phe receptor and 1400 nM in assay [1].

Take `COc1cc(F)c(-n2cc(C(=O)N3CCNC(=O)C3)nc2NC(=O)c2ccc(OC(F)F)cc2)c(F)c1` [WO2022076764, Example 58]: the EC50 turned out to be 170 nM at fMet-Leu-Phe receptor and 3400 nM in assay [1].

`COc1cc(F)c(-n2cc(C3CC(NS(C)(=O)=O)C3)nc2NC(=O)c2ccc(OC(F)F)cc2)c(F)c1` (stereo unspecified) [WO2022076764, Example 83]: the EC50 is 5 nM on fMet-Leu-Phe receptor and 400 nM in assay [1].

Take `COc1cc(F)c(-n2cc(-c3ccc(OC(F)F)cc3)nc2NC(=O)c2ccc(OC(F)F)cc2)c(F)c1` [WO2022076764, Example 7]: the EC50 on fMet-Leu-Phe receptor was determined as 33 nM; in assay [1], 190 nM.

Consider `COc1cc(F)c(-n2cc(C(F)(F)F)nc2NC(=O)c2ccc(OC(F)F)cc2)c(F)c1` [WO2022076764, Example 43], for which the values for the EC50 (at fMet-Leu-Phe receptor; in assay [1]) were 10 nM and 40 nM, respectively.

For `COc1cc(F)c(-n2cc(C(=O)NCc3cccnc3)nc2NC(=O)c2ccc(OC(F)F)cc2)c(F)c1` [WO2022076764, Example 47], the EC50 on fMet-Leu-Phe receptor was 35 nM; in assay [1], 110 nM.

Turning to `CCS(=O)(=O)N1CCC(c2cn(-c3c(F)cc(OC)cc3F)c(NC(=O)c3ccc(OC(F)F)cc3)n2)CC1` [WO2022076764, Example 65], the EC50 at fMet-Leu-Phe receptor worked out at 81 nM; in assay [1], 320 nM.

For the compound `COc1cc(F)c(-n2cc(-c3ccc(Cl)c(Cl)c3)nc2NC(=O)c2ccc(OC(F)F)cc2)c(F)c1` [WO2022076764, Example 18], the EC50 is 51 nM at fMet-Leu-Phe receptor and 400 nM in assay [1].

Take `COc1cc(F)c(-n2cc(C(=O)N3CCNCC3)nc2NC(=O)c2ccc(OC(F)F)cc2)c(F)c1` [WO2022076764, Example 61]: the EC50 was 130 nM at fMet-Leu-Phe receptor and greater than 10000 nM in assay [1].

In the case of `CCOC(=O)c1cn(-c2c(F)cc(OC)cc2F)c(NC(=O)c2ccc(OC(F)F)cc2)n1` [WO2022076764, Example 38], the EC50 amounted to 15 nM on fMet-Leu-Phe receptor and 620 nM in assay [1].

As for `CCOC(=O)Cc1cn(-c2c(F)cc(OC)cc2F)c(NC(=O)c2ccc(OC(F)F)cc2)n1` [WO2022076764, Example 72], the EC50 is 22 nM on fMet-Leu-Phe receptor and 470 nM in assay [1].

Regarding `COc1cc(F)c(-n2cc(-c3ccc(C)cc3)nc2NC(=O)c2ccc(OC(F)F)cc2)c(F)c1` [WO2022076764, Example 15], the EC50 on fMet-Leu-Phe receptor was found to be 23 nM; in assay [1], 130 nM.

As for `CCOC(=O)c1cn(-c2ccc(OC)cc2)c(NC(=O)c2ccc(OC(F)F)cc2)n1` [WO2022076764, Example 30], the EC50 worked out at 9 nM at fMet-Leu-Phe receptor and 100 nM in assay [1].

Regarding `COc1cc(F)c(-n2cc(C3CNC3)nc2NC(=O)c2ccc(OC(F)F)cc2)c(F)c1` [WO2022076764, Example 79], the EC50 came to 81 nM at fMet-Leu-Phe receptor and 4200 nM in assay [1].

With `COc1cc(F)c(-n2cc(C3CCC(O)CC3)nc2NC(=O)c2ccc(OC(F)F)cc2)c(F)c1` (stereo unspecified) [WO2022076764, Example 76], the results for the EC50 (on fMet-Leu-Phe receptor; in assay [1]) were 10 nM and 240 nM, respectively.

In the case of `COc1ccc(-n2cc(C3CCCCC3)nc2NC(=O)c2ccc(OC(F)F)cc2)cc1` [WO2022076764, Example 27], the concentration giving a half-maximal response (EC50) stood at 55 nM at fMet-Leu-Phe receptor and 660 nM in assay [1].

As to `COc1ccc(-n2cc(-c3nc4cc(Cl)ccc4o3)nc2NC(=O)c2ccc(OC(F)F)cc2)cc1` [WO2022076764, Example 26], the EC50 on fMet-Leu-Phe receptor was determined as 72 nM; in assay [1], 400 nM.

In the case of `COc1ccc(-n2cc(-c3nc4ccccc4s3)nc2NC(=O)c2ccc(OC(F)F)cc2)cc1` [WO2022076764, Example 23], the figures for the EC50 (on fMet-Leu-Phe receptor; in assay [1]) were 28 nM and 44 nM, respectively.

`COc1cc(F)c(-n2cc(C3CC(N)C3)nc2NC(=O)c2ccc(OC(F)F)cc2)c(F)c1` (stereo unspecified) [WO2022076764, Example 81]: the figures for the concentration giving a half-maximal response (EC50) (on fMet-Leu-Phe receptor; in assay [1]) were 4 nM and 5400 nM, respectively.

`COc1ccc(-n2cc(C(C)(C)C)nc2NC(=O)c2ccc(OC(F)F)cc2)cc1` [WO2022076764, Example 32]: the EC50 on fMet-Leu-Phe receptor was determined as 18 nM; in assay [1] it was 110 nM.

Take `CCOC(=O)c1cc(-c2cn(-c3ccc(OC)cc3)c(NC(=O)c3ccc(OC(F)F)cc3)n2)on1` [WO2022076764, Example 29]: the concentration giving a half-maximal response (EC50) was determined as 15 nM on fMet-Leu-Phe receptor and 32 nM in assay [1].

With `COc1cc(F)c(-n2cc(Cc3nnc(C)o3)nc2NC(=O)c2ccc(OC(F)F)cc2)c(F)c1` [WO2022076764, Example 73], the EC50 is 23 nM at fMet-Leu-Phe receptor and 300 nM in assay [1].

On to `COc1cc(F)c(-n2cc(C(=O)N3CC[C@H](O)C3)nc2NC(=O)c2ccc(OC(F)F)cc2)c(F)c1` [WO2022076764, Example 57], for which the EC50 at fMet-Leu-Phe receptor amounted to 120 nM; in assay [1] it was 1900 nM.

`COc1cc(F)c(-n2cc(C(=O)N3CCC(CO)C3)nc2NC(=O)c2ccc(OC(F)F)cc2)c(F)c1` (stereo unspecified) [WO2022076764, Example 59]: the values for the EC50 (at fMet-Leu-Phe receptor; in assay [1]) were 82 nM and 2200 nM, respectively.

As for `COc1cc(F)c(-n2cc(C(=O)NCCCO)nc2NC(=O)c2ccc(OC(F)F)cc2)c(F)c1` [WO2022076764, Example 60], the EC50 on fMet-Leu-Phe receptor amounted to 56 nM; in assay [1], 1400 nM.

`COc1cc(F)c(-n2cc(C(=O)NCc3cnc(C)cn3)nc2NC(=O)c2ccc(OC(F)F)cc2)c(F)c1` [WO2022076764, Example 56]: the values for the EC50 (on fMet-Leu-Phe receptor; in assay [1]) were 89 nM and 110 nM, respectively.

As to `COc1cc(F)c(-n2cc(-c3cccc(Cl)c3)nc2NC(=O)c2ccc(OC(F)F)cc2)c(F)c1` [WO2022076764, Example 12], the EC50 at fMet-Leu-Phe receptor is 15 nM; in assay [1], 450 nM.

In the case of `COc1ccc(-n2cc(C34CC5CC(CC(C5)C3)C4)nc2NC(=O)c2ccc(OC(F)F)cc2)cc1` [WO2022076764, Example 31], the EC50 on fMet-Leu-Phe receptor is 320 nM; in assay [1], greater than 10000 nM.

Consider `COc1cc(F)c(-n2cc(-c3ccc(Cl)c(C)c3)nc2NC(=O)c2ccc(OC(F)F)cc2)c(F)c1` [WO2022076764, Example 5], for which the EC50 on fMet-Leu-Phe receptor is 47 nM; in assay [1] it was 140 nM.

With `COc1cc(F)c(-n2c(NC(=O)c3ccc(OC(F)F)cc3)nc(-c3ccc(Cl)cc3)c2C)c(F)c1` [WO2022076764, Example 13], the EC50 at fMet-Leu-Phe receptor stood at 53 nM; in assay [1] it was 550 nM.
